Assay results published in US11044909B2, “Composition for destruction of microalgae or sphaerocarpus” (CUREARTH, INC., priority 2015, dated 2021).
Where two headings read alike, the source gives them in different places.

Key:
Assay in all cases: Microalgae-destroying effect by IC50 measurement (cell count)
Type in all cases: cell-based
[1] = tested on: Chattonella Marina; conditions: 24 h, read-out: IC50 Chattonella Marina
Description: (§1) The IC50 value was obtained according to Equation 1: […]
(§2) First, the above-listed microalgae were cultured in a culture flask at a temperature of about 20° C. under light conditions, and a medium used was Guillard's f/2 medium which is commonly used in the art (Guillard R R L and Keller M D. Culturing dinoflagellates. In: Spector (Ed.), Dinoflagellates. New York: Academic Press; 1984, 391442).
(§3) After the cultured microalgae were transferred onto a 24-well plate, Chattonella Marina, Heterosigma circularisquama, Cochlodinium Polykrikoides, and Heterosigma akashiwo, which were in an exponential growth phase, were treated with Compounds 1 to 3, 5 to 10, 12, 13, 17 to 43, and 45 to 47 synthesized in Examples 1 to 3, 5 to 10, 12, 13, 17 to 43, and 45 to 47 at concentrations of 0.1 uM, 0.2 uM, 0.5 uM, 1 uM, 2 uM, and 5 uM, and then cultured for 1 day.
(§4) Control groups were not treated with any of the compounds synthesized in the above-identified examples. After incubation, the number of cells of each alga was counted using a Burker-Tukr hemocytometer, and IC50 values were calculated according to Equation 1 using SigmaPlot Version 11.2 software (Standard curve: the four-parameter logistic curve).

[2] = tested on: Heterocapsa Circularisquama; conditions: 24 h
Description: as §1, §2, §3, §4

[3] = tested on: Heterosigma Akashiwo; conditions: 24 h, read-out: IC50 Heterosigma Akashiwo
Description: as §1, §2, §3, §4

[4] = tested on: Cochlodinium Polykrikoides; conditions: Margalefidinium polykrikoides, 24 h, read-out: IC50 Cochlodinium Polykrikoides
Description: (§5) The IC50 value was obtained according to Equation 1:
(§6) The algicidal activity of each compound was calculated using Equation 2: Algicidal activity (%)=(1−Tt/Ct)×100 <Equation 2>
(§7) In Equation 2, T (treatment group) and C (control group) represent algae densities in cell counts when each compound was inoculated and was not inoculated, respectively, and t represents the number of days which had passed after the inoculation.
as §2, §3, §4

[5] = tested on: Microcystis aeruginosa; conditions: read-out: IC50 Microcystis aeruginosa
Description: as §5, §6, §7, §2
Microcystis aeruginosa was treated with Compounds 1 to 3, 5 to 10, 12, 13, 17 to 43, and 45 to 51 synthesized in Examples 1 to 3, 5 to 10, 12, 13, 17 to 43, and 45 to 51 at concentrations of 0.1 uM, 0.2 uM, 0.5 uM, 1 uM, 2 uM, 5 uM, 10 uM, 15 uM, and 20 uM and then cultured for 5 days.
as §4

[6] = Table 1, 3,4-dichlorobenzylamines, 0.1-5 uM, cultured 1 day
[7] = Table 1, 3,4-dichlorobenzylamines, 0.1-5 uM, cultured 1 day, read-out: IC50 Heterocapsa Circularisquama
[8] = Microcystis aeruginosa, 120 h, Table 1, 3,4-dichlorobenzylamines, 0.1-20 uM, cultured 5 days
[9] = Table 2, 0.1-5 uM, cultured 1 day
[10] = Table 2, 0.1-5 uM, cultured 1 day, read-out: IC50 Heterocapsa Circulariaquama

| Structure (SMILES) | IC50 [1, 6] [µM] | IC50 [2, 7] [µM] | IC50 [3, 6] [µM] | IC50 [4, 6] [µM] | IC50 [5, 8] [µM] | IC50 [1, 9] [µM] | IC50 [2, 10] [µM] | IC50 [3, 9] [µM] | IC50 [4, 9] [µM] | IC50 ([5]; Microcystis aeruginosa, 120 h) [µM] | further results |
| --- | --- | --- | --- | --- | --- | --- | --- | --- | --- | --- | --- |
| Clc1ccc(CNC2CCCCCCC2)cc1Cl [Compound 47, Cyclooctyl-(3,4-dichloro-benzyl)-amine] | 0.5 | 1.19 | 0.34 | 0.1 | 15 | – | – | – | – | – | – |
| CCCCNCc1ccc(Cl)c(Cl)c1 [Compound 20, Butyl-(3,4-dichloro-benzyl)-amine] | 3.16 | 2.86 | 0.44 | 3.52 | > 20 | – | – | – | – | – | – |
| c1ccc(CNCCc2ccccn2)cc1 [Compound 37, Benzyl-(2-pyridin-2-yl-ethyl)-amine] | – | – | – | – | – | 0.34 | > 5 | 0.13 | > 5 | > 5 | – |
| Clc1ccc(CNCc2ccncc2)cc1Cl [Compound 28, (3,4-Dichloro-benzyl)-pyridin-4-ylmethyl-amine] | > 5 | > 5 | 2.28 | > 5 | 15.2 | – | – | – | – | – | – |
| O=C(/C=C/c1ccc(Cl)c(Cl)c1)c1ccc(Cl)cc1 [Compound 24, 1-(4-Chloro-phenyl)-3-(3,4-dichloro-phenyl)-propenone] | – | – | – | – | – | > 5 | > 5 | 1.7 | 1.33 | > 5 | – |
| Clc1ccc(CNCCc2ccccc2)cc1Cl [Compound 34, (3,4-Dichloro-benzyl)-phenethyl-amine] | 0.46 | 1.5 | 0.12 | 0.875 | 5.97 | – | – | – | – | – | – |
| Clc1ccc(CNc2ccccc2)cc1Cl [Compound 19, (3,4-Dichloro-benzyl)-phenyl-amine] | 3.5 | > 5 | 1.27 | 4.14 | 13.8 | – | – | – | – | – | – |
| Clc1ccc(CNC2CCCCCC2)cc1Cl [Compound 36, Cycloheptyl-(3,4-dichloro-benzyl)-amine] | 0.25 | 0.69 | 0.263 | 0.15 | 3.09 | – | – | – | – | – | – |
| Clc1ccc(CNCc2ccccc2)cc1Cl [Compound 29, Benzyl-(3,4-dichloro-benzyl)-amine] | 3.46 | 3.23 | 0.6 | 2.75 | 14.4 | – | – | – | – | – | – |
| CCN(CC)CCCNC(=O)c1ccc(Cl)c(Cl)c1 [Compound 13, 3,4-Dichloro-N-(3-diethylamino-propyl)-benzamide] | – | – | – | – | – | 4.5 | 5 | 2.27 | 2.22 | > 5 | – |
| OCCN(CCO)CCCNCc1ccc(Cl)c(Cl)c1 [Compound 51, 2-[[3-(3,4-Dichlorobenzylamino)propyl]-(2-hydroxyethyl)amino]ethanol] | – | – | – | – | 2.27 | – | – | – | – | – | – |
| CN(C)CCCNCc1ccc(Cl)c(Cl)c1 [Compound 8, N′-(3,4-Dichloro-benzyl)-N,N-dimethyl-propane-1,3-diamine] | 0.81 | 3.3 | 1.26 | 0.29 | 0.09 | – | – | – | – | – | – |
| CCNCc1ccc(Cl)c(Cl)c1 [Compound 17, (3,4-Dichloro-benzyl)-ethyl-amine] | > 5 | > 5 | 1.18 | > 5 | > 20 | – | – | – | – | – | – |
| CCN(CC)CCCNCc1ccc(Cl)c(Cl)c1 [Compound 48, N′-(3,4-Dichloro-benzyl)-N, N-diethyl-propane-1,3-diamine.2HCl] | – | – | – | – | – | – | – | – | – | – | IC50 ([5]; Table 1, 3,4-dichlorobenzylamines, 0.1-20 uM, cultured 5 days): 0.78 µM |
| Clc1ccc(CNCCc2cccnc2)cc1Cl [Compound 31, (3,4-Dichloro-benzyl)-(2-pyridin-3-yl-ethyl)-amine] | 3.5 | 1.6 | 0.59 | 0.424 | > 20 | – | – | – | – | – | – |
| Clc1ccc(CNc2ccc(Br)cc2)cc1Cl [Compound 25, (4-Bromo-phenyl)-(3,4-dichloro-benzyl)-amine] | > 5 | 2.83 | 1.19 | 4 | 11.1 | – | – | – | – | – | – |

| Structure (SMILES) | IC50 [1, 6] [µM] | IC50 [2, 7] [µM] | IC50 [3, 6] [µM] | IC50 [4, 6] [µM] | IC50 [5, 8] [µM] | IC50 [1, 9] [µM] | IC50 [2, 10] [µM] | IC50 [3, 9] [µM] | IC50 [4, 9] [µM] | IC50 ([5]; Microcystis aeruginosa, 120 h) [µM] | further results |
| --- | --- | --- | --- | --- | --- | --- | --- | --- | --- | --- | --- |
| CN(C)CCNC(=O)c1ccc(Cl)c(Cl)c1 [Compound 10, 3,4-Dichloro-N-(2-dimethylamino-ethyl)-benzamide] | – | – | – | – | – | > 5 | > 5 | 1.63 | > 5 | > 5 | – |
| c1ccc(CNC2CCCCC2)cc1 [Compound 43, Benzyl-cyclohexyl-amine] | – | – | – | – | – | > 5 | > 5 | 0.67 | > 5 | > 5 | – |
| CC(C)CCNCc1ccc(Cl)c(Cl)c1 [Compound 7, (3,4-Dichloro-benzyl)-(3-methyl-butyl)-amine] | 2 | 1.5 | 0.28 | 1.53 | 11.6 | – | – | – | – | – | – |
| Brc1cccc(CNCCc2ccccn2)c1 [Compound 40, (3-Bromo-benzyl)-(2-pyridin-2-yl-ethyl)-amine] | – | – | – | – | – | 0.74 | > 5 | 0.57 | 3.5 | > 5 | – |
| Oc1ccccc1CNCCc1ccccn1 [Compound 38, 2-[(2-Pyridin-2-yl-ethylamino)-methyl]-phenol] | – | – | – | – | – | 0.91 | > 5 | 0.13 | > 5 | > 5 | – |
| O=C(/C=C/c1ccc(Cl)c(Cl)c1)c1ccccc1 [Compound 22, 3-(3,4-Dichloro-phenyl)-1-phenyl-propenone] | – | – | – | – | – | > 5 | > 5 | 3.67 | 1.66 | > 5 | – |
| CN(C)CCCNC(=O)c1ccc(Cl)c(Cl)c1 [Compound 12, 3,4-Dichloro-N-(3-dimethylamino-propyl)-benzamide] | – | – | – | – | – | > 5 | > 5 | 1.55 | > 5 | > 5 | – |
| Clc1ccc(CNCCc2ccccn2)cc1Cl [Compound 32, (3,4-Dichloro-benzyl)-(2-pyridin-2-yl-ethyl)-amine] | 0.31 | 1.05 | 0.18 | 0.5 | 19.6 | – | – | – | – | – | – |
| COC(CCCNCc1ccc(Cl)c(Cl)c1)OC [Compound 6, (3,4-Dichloro-benzyl)-(4,4-dimethoxy-butyl)-amine] | > 5 | 4.8 | 1.3 | 4.42 | 8.64 | – | – | – | – | – | – |
| Brc1ccc(CNCCc2ccccn2)cc1 [Compound 41, (4-Bromo-benzyl)-(2-pyridin-2-yl-ethyl)-amine] | – | – | – | – | – | 0.72 | > 5 | 0.14 | > 5 | > 5 | – |
| CCCCN(CCCC)CCCNCc1ccc(Cl)c(Cl)c1 [Compound 50, N,N-Dibutyl-N′-(3,4-dichlorobenzyl)propane-1,3-diamine] | – | – | – | – | 0.54 | – | – | – | – | – | – |
| Brc1ccccc1CNCCc1ccccn1 [Compound 39, (2-Bromo-benzyl)-(2-pyridin-2-yl-ethyl)-amine] | – | – | – | – | – | – | – | – | – | > 5 | IC50 [1]: 1.12 µM; IC50 ([2]; read-out: IC50 Heterocapsa Circulariaquama): > 5 µM; IC50 [3]: 0.28 µM; IC50 [4]: > 5 µM |
| Clc1ccc(CNCc2cccnc2)cc1Cl [Compound 27, (3,4-Dichloro-benzyl)-pyridin-3-ylmethyl-amine] | > 5 | 3.55 | 0.79 | 2 | > 20 | – | – | – | – | – | – |
| Clc1ccc(CNCCc2ccncc2)cc1Cl [Compound 30, (3,4-Dichloro-benzyl)-(2-pyridin-4-yl-ethyl)-amine] | 3.47 | 1.91 | 0.42 | 2.7 | > 20 | – | – | – | – | – | – |
| CCCCN(CCCC)CCNCc1ccc(Cl)c(Cl)c1 [Compound 49, N,N-Dibutyl-N′-(3,4-dichlorobenzyl)ethane-1,2-diamine] | – | – | – | – | 0.88 | – | – | – | – | – | – |
